# Where two headings read alike, the source gives them in different places. *1 amine or outer side, *2 acyl side, *3 side chain or, on linkers, in order; H or OH if unused. Where a SMILES comes first, the peptide text is derived from it. Side-chain parts run from the residue outwards. [ ]: non-standard residue; d: D form. The star is where a group is joined. αMePhe(2-F) = C[C@](N)(Cc1ccccc1F)C(=O)O; γGlu = O=C(O)[C@H](CCC(=O)[*:2])N[*:1]; C14 diacid = O=C(O)CCCCCCCCCCCCC(=O)*; αMeF = C[C@](N)(Cc1ccccc1)C(=O)O; 4Pal = N[C@@H](Cc1ccncc1)C(=O)O; αMeL = CC(C)C[C@](C)(N)C(=O)O; Orn = NCCC[C@H](N)C(=O)O; AEEA = NCCOCCOCC(=O)O; Aib = CC(C)(N)C(=O)O
# Columns and labels:
# Assay type in all cases: cell-based
# hGIPR = target: T1, hGIPR (Homo sapiens, UniProt P48546); test: Functional cAMP formation (HTRF) in HEK-293 clonal cells expressing hGIPR, 0.1% bovine casein, without or with 1.0% human serum albumin; conditions: for Emax: 37° C., 0.1% bovine casein, arithmetic mean; for EC50: cAMP, incubated at 37° C., 0.1% bovine casein (no human serum albumin), geometric mean
# T1 construct: expressed in transfected cells
# T1 sequence (P48546 22-466): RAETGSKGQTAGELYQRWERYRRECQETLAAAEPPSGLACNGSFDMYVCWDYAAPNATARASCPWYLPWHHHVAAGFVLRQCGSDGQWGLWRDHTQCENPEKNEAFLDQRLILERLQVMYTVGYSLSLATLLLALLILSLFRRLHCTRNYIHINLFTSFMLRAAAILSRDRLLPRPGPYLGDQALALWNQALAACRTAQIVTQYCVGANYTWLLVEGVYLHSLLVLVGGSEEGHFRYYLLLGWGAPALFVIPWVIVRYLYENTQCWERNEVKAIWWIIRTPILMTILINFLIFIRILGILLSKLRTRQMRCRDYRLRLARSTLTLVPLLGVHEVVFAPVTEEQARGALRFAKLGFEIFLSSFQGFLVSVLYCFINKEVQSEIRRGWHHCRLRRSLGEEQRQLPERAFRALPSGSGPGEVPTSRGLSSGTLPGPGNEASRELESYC
# Method in brief: (§1)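 Cells were stimulated with peptide for 30 min at 37° C, then intracellular cAMP was measured by competitive HTRF (665/620 nm ratio) and converted to nM using a cAMP standard curve. Relative EC50 and Emax came from four-parameter logistic fits of percent maximal response against peptide concentration.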
# hGCGR = target: T2, hGCGR (Homo sapiens, UniProt P47871); test: Functional cAMP formation (HTRF) in HEK-293 clonal cells expressing hGCGR, 0.1% bovine casein, without or with 1.0% human serum albumin; conditions: cAMP, incubated at 37° C., 0.1% bovine casein (no human serum albumin), geometric mean
# T2 construct: expressed in transfected cells
# T2 sequence (P47871 26-477): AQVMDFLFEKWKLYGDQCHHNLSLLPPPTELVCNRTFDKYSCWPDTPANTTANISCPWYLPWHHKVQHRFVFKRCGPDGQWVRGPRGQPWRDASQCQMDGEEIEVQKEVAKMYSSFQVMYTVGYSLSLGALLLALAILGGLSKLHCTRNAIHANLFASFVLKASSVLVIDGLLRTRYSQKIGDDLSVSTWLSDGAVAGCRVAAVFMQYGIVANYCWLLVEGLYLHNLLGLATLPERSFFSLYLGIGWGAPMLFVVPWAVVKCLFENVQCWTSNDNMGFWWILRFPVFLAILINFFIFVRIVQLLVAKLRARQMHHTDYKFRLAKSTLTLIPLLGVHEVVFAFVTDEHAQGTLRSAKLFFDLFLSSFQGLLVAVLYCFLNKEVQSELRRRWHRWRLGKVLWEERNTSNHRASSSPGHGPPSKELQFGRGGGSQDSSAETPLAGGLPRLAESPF
# Method in brief: as §1
# hGLP-1R = hGLP-1R (Homo sapiens, UniProt P43220); test: Functional cAMP formation (HTRF) in HEK-293 clonal cells expressing hGLP-1R, 0.1% bovine casein, without or with 1.0% human serum albumin; parameters: expressed in transfected cells; conditions: 37° C., 0.1% bovine casein, arithmetic mean
# hGLP-1R, sequence (P43220 24-463): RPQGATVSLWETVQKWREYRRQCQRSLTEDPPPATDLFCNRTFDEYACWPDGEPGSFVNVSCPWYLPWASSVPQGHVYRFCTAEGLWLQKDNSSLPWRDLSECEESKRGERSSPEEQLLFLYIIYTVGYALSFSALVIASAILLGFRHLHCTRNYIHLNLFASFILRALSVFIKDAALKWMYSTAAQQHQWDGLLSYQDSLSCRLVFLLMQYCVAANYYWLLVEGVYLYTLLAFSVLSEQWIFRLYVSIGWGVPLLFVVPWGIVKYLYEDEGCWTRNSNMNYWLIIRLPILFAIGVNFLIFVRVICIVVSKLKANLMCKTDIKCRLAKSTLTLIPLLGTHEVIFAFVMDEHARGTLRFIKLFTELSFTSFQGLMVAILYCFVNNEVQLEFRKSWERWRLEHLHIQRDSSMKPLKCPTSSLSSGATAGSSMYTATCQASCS
# Method in brief: as §1
Compound,"Emax (hGIPR; HEK293, read-out: hGIPR Emax, % ± SEM, percent of maximal response to GIP(1-42)NH2) [%]","EC50 (hGIPR; hGIPR EC50, nM (SEM, n)) [nM]","EC50 (hGCGR; hGCGR EC50, nM (SEM, n)) [nM]","Emax (hGLP-1R; HEK293, read-out: hGLP-1R Emax, % ± SEM, percent of maximal response to GLP-1(7-36)NH2) [%]","Emax (hGIPR; HEK293, percent of maximal response to GIP(1-42)NH2, read-out: hGIPR Emax, % ± SEM) [%]","EC50 (hGIPR; read-out: hGIPR EC50, nM (SEM, n)) [nM]","EC50 (hGCGR; read-out: hGCGR EC50, nM (SEM, n)) [nM]","Emax (hGLP-1R; HEK293, percent of maximal response to GLP-1(7-36)NH2, read-out: hGLP-1R Emax, % ± SEM) [%]"
CC[C@H](C)[C@H](NC(=O)[C@H](CC(C)C)NC(=O)[C@](C)(Cc1ccc(O)cc1)NC(=O)[C@H](CCC(=O)O)NC(=O)[C@@H](NC(=O)[C@H](Cc1ccccc1)NC(=O)[C@H](CCC(=O)O)NC(=O)C(C)(C)NC(=O)[C@H](CCC(N)=O)NC(=O)[C@H](C)NC(=O)[C@H](CCCCNC(=O)COCCOCCNC(=O)COCCOCCNC(=O)CC[C@H](NC(=O)CCCCCCCCCCCCC(=O)O)C(=O)O)NC(=O)[C@H](CCCN)NC(=O)[C@H](CC(=O)O)NC(=O)[C@H](CC(C)C)NC(=O)[C@](C)(CC(C)C)NC(=O)[C@@H](NC(=O)[C@H](CO)NC(=O)[C@H](Cc1ccncc1)NC(=O)[C@H](CC(=O)O)NC(=O)[C@H](CO)NC(=O)[C@@H](NC(=O)[C@](C)(Cc1ccccc1F)NC(=O)[C@@H](NC(=O)CNC(=O)[C@H](CCC(=O)O)NC(=O)C(C)(C)NC(=O)[C@@H](N)Cc1ccc(O)cc1)[C@@H](C)O)[C@@H](C)O)[C@@H](C)CC)[C@@H](C)CC)C(=O)N[C@@H](CCC(=O)O)C(=O)NCC(=O)NCC(=O)N[C@@H](CCCCNC(=O)COCCOCCNC(=O)COCCOCCNC(=O)CC[C@H](NC(=O)CCCCCCCCCCCCC(=O)O)C(=O)O)C(=O)N[C@@H](CO)C(=O)N[C@@H](CO)C(=O)NCC(=O)N[C@@H](C)C(=O)N1CCC[C@H]1C(=O)N1CCC[C@H]1C(=O)N1CCC[C@H]1C(=O)N[C@@H](CO)C(N)=O [Example 158],93.4,0.0204,> 9950,87.2,,,,
CC[C@H](C)[C@H](NC(=O)[C@H](CC(C)C)NC(=O)[C@](C)(Cc1ccccc1)NC(=O)[C@H](CCC(=O)O)NC(=O)[C@@H](NC(=O)[C@H](Cc1ccccc1)NC(=O)[C@H](CCC(=O)O)NC(=O)C(C)(C)NC(=O)[C@H](CCC(N)=O)NC(=O)[C@H](C)NC(=O)[C@H](CCCCNC(=O)COCCOCCNC(=O)COCCOCCNC(=O)CC[C@H](NC(=O)CCCCCCCCCCCCC(=O)O)C(=O)O)NC(=O)[C@H](CCCN)NC(=O)[C@H](CC(=O)O)NC(=O)[C@H](CC(C)C)NC(=O)[C@](C)(CC(C)C)NC(=O)[C@@H](NC(=O)[C@H](CO)NC(=O)[C@H](Cc1ccncc1)NC(=O)[C@H](CC(=O)O)NC(=O)[C@H](CO)NC(=O)[C@@H](NC(=O)[C@](C)(Cc1ccccc1F)NC(=O)[C@@H](NC(=O)CNC(=O)[C@H](CCC(=O)O)NC(=O)C(C)(C)NC(=O)[C@@H](N)Cc1ccc(O)cc1)[C@@H](C)O)[C@@H](C)O)[C@@H](C)CC)[C@@H](C)CC)C(=O)N[C@@H](CCC(=O)O)C(=O)NCC(=O)NCC(=O)N[C@@H](CCCCNC(=O)COCCOCCNC(=O)COCCOCCNC(=O)CC[C@H](NC(=O)CCCCCCCCCCCCC(=O)O)C(=O)O)C(=O)N[C@@H](CO)C(=O)N[C@@H](CO)C(=O)NCC(=O)N[C@@H](C)C(=O)N1CCC[C@H]1C(=O)N1CCC[C@H]1C(=O)N1CCC[C@H]1C(=O)N[C@@H](CO)C(N)=O [Example 159] (H-Y[Aib]EGT[αMePhe(2-F)]TSD[4Pal]SI[αMeL]LD[Orn]K([AEEA-AEEA-γGlu-C14 diacid])AQ[Aib]EFIE[αMeF]LIEGGK([AEEA-AEEA-γGlu-C14 diacid])SSGAPPPS-NH2),,,,,95.3,0.0198,> 9950,89.4
